Converted amounts (≈) assume the structure as drawn. Read-outs that look alike come from different tables or passages of the source.
Legend:
EfMetAP1 = target: T1, EfMetAP1 (Enterococcus faecalis, UniProt Q832M5); experiment: EfMetAP1 inhibition, coupled methionine-proline aminopeptidase assay; format: biochemical, E. faecalis
T1 sequence (Q832M5 1-254): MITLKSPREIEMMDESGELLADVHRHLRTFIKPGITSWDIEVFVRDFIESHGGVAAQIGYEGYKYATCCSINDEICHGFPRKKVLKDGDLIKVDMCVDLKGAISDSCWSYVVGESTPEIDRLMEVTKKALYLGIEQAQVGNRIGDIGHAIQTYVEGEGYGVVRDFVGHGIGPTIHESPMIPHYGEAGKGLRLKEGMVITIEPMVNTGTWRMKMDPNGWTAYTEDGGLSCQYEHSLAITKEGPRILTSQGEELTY
Description: 175,000 compounds were screened against EfMetAP1, using the coupled methionine-proline aminopeptidase spectrophotometric assay (FIG. 7A). The primary screen was performed at final concentrations of 30 μM in 384-well plates using a titertek instrument with liquid handling capabilities coupled to a spectrophotometer. The compounds were dissolved in dimethylsulfoxide (DMSO) and the total reaction volume was 50 μL where each reaction contained 40 mM Hepes buffer (pH 7.5), 100 mM NaCl, 100 μg/mL BSA, 0.1 U/mL ProAP, 1.5 mM CoCl2, 600 μM substrate (Met-Pro-pNA), and 1.38 μM EfMetAP1. The Enzyme was pre-incubated with compounds for 20 min at room temperature followed by addition of substrate. The reaction was incubated at room temperature for 30 min and monitored at 405 nm on a spectrophotometer. […] The background hydrolysis was corrected and the data was fitted against the sigmoidal-dose response (variable slope) equation using GraphPad prism software.

M. tuberculosis CDC 1551 = experiment: Minimum Inhibitory Concentration in replicating M. tuberculosis; format: cell-based, Mycobacterium tuberculosis; details: replicating culture; for MIC: Mycobacterium tuberculosis, CDC1551, read-out: Minimum Inhibitory Concentration Wild-type M. tuberculosis Strain CDC1551
LmMetAP1 = target: T2, LmMetAP1 (Leishmania major, UniProt Q4QDG7); experiment: LmMetAP1 enzyme inhibition (l-Met-pNA); format: biochemical
T2 sequence (Q4QDG7 1-401): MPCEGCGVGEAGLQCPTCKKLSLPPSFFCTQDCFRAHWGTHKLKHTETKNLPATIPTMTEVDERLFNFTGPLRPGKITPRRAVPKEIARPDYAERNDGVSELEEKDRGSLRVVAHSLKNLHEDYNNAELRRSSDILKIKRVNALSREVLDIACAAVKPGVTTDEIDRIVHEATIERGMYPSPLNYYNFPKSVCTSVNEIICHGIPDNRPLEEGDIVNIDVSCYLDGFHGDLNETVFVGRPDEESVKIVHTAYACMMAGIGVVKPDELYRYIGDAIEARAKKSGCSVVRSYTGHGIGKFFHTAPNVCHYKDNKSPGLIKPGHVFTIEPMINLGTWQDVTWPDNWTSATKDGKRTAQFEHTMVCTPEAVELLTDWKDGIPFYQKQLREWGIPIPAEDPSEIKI
Description: After cloning, overexpressing and purifying the protein to near homogeneity, the chromogenic substrate I-methionine-p-nitroanalide (I-Met-pNA) (Sigma) was used to determine inhibition of the enzyme using various compounds (Mitra et al. 2006).

HIV-1 (89.6 strain) = experiment: microbe, parasite or virus in culture; format: cell-based; details: for inhibition of HIV-1 p24 antigen production: HIV-1 infected PBMC, ELISA; for inhibitory concentration equivalent to negative control (blank): p24 ELISA; for IC50: Human immunodeficiency virus 1, PBMC, read-out: concentration required for 50% inhibition of HIV1 p24 produced, primary screen, preliminary
HIV-1 transcription = details: Debebe et. al. 2007; cited from earlier work
HsMetAP1 = HsMetAP1 (Homo sapiens, UniProt P53582); experiment: MetAP enzyme inhibition IC50; format: biochemical
Description: (§1) The enzyme was pre-incubated with compounds for 20 minutes at room temperature followed by addition of substrate. The reaction was incubated at room temperature for 30 min and monitored at 405 nm on a spectrophotometer. The background hydrolysis was subtracted and the data was fitted to a four-parameter logistic (variable slope) equation using GraphPad Prism software.

HsMetAP2 = HsMetAP2 (Homo sapiens, UniProt P50579); experiment: MetAP enzyme inhibition IC50; format: biochemical
Description: as §1

[1] = system: L. major promastigotes over-expressing LmMetAP1; experiment: Leishmania major luciferase assay, promastigotes over-expressing LmMetAP1; format: cell-based; details: read-out: L. major promastigotes over-expressing LmMetAP1 EC50
Description: (§2) Compounds were screened against L. major strain friedlin clone V1 promastigotes expressing firefly luciferase at concentrations ranging from 100 μM-780 nM in a 96 well plate. These experiments were done in triplicates using L. major media and 10^6 parasites per well. The plates were incubated for 24, 48, 72 and 96 hours at 28° C. Amphotericin B (AB) was used as a positive control at 5 μM as a comparison to the leishmanicidal activity of the inhibitors. The inhibitory effects of the compounds were assessed by monitoring parasite survival through luciferase activity. The substrate 5′-fluoroluciferin (ONE-Glo Luciferase Assay System, Promega, Madison, Wis.) was added according to the manufacturer's protocol after each time point. The plates were read using a luminometer (Luminoskan, Thermo Scientific, Rockford, Ill.). Data was analyzed using GraphPad Prism Software (GraphPad Software, Inc., La Jolla, Calif.).
LmMetAP1 was cloned in the Leishmania expression vector pXG, and parasites were transfected. The parasites overexpressing LmMetAP1 were selected for and cloned.

[2] = system: Wild-type L. major promastigotes; experiment: Leishmania major luciferase assay, wild type promastigotes; details: read-out: Wild-type L. major promastigotes EC50
Description: Promastigote forms of L. major strain Friedlin clone V1 expressing firefly luciferase were grown in M199 medium supplemented with hemin and 10% fetal bovine serum (FBS) inactivated at 56° C. for 30 minutes and treated with 50 ng/mL streptothricin neosulfate for maintenance of LUC gene.
as §2

M. tuberculosis H37Ra = experiment: Activity against dormant (aged non-growing) M. tuberculosis, XTT; format: cell-based, Mycobacterium tuberculosis; details: for MIC: Mycobacterium tuberculosis, H37RA, read-out: MIC dormant M. tuberculosis Strain H37Ra
Description: The activity of the compounds in aged non-growing M. tuberculosis was achieved using a perister model at concentrations […] and monitored for three weeks. Briefly, 2 month old M. tuberculosis H37Ra culture was grown in 7H9 medium (Difco) with 10% albumin dextrose catalase (ADC) and 0.05% Tween 80. […] The compound was diluted from a 10 mM (in DMSO) to 10 μM (final concentration) and incubated with the bacilli in […] 7H9 medium (pH 5.5) without ADC in a 96-well plate for three days without shanking under 1% oxygen in a hypoxic chamber. This assay was performed in duplicates with Rifampin (5 mg/mL). Following a 3 day drug exposure, bacilli viability was determined by adding […] of 1 mg/mL of XTT (2,3-bis-(2-methoxy-4-nitro-5-sulfophenyl)-2H-tetrazolium-5-carboxanilide) and incubated at 37° C. for up to 7 days. The 96 well plates were then read at OD 485 nm.

E. faecalis OG1RF [3] = experiment: Assay of E. faecalis inhibition (MIC) in BHI culture; details: Enterococcus faecalis, read-out: Minimum Inhibitory Concentration MIC30 OG1RF
E. faecalis V583 [4] = experiment: as above
E. faecalis V583 [5] = experiment: Liquid-based C. elegans infection model, survival
E. faecalis OG1RF [6] = experiment: Liquid-based C. elegans infection model, survival; format: in vivo, Enterococcus faecalis; details: C. elegans
M. bovis BCG = format: cell-based, Mycobacterium bovis; details: for CFU from cellular lysates (intracellular M. bovis BCG): 7 d p.i., RIF 5.0 μg/mL, INH 0.1 μg/mL
MtMetAP1c = MtMetAP1c (Mycobacterium tuberculosis, UniProt P9WK19); experiment: MetAP enzyme inhibition IC50 (Met-Pro-pNA coupled assay); format: biochemical
Description: A primary high throughput screen was conducted using MAP-C2 microplate processor (Titertek Instruments, Inc., Huntsville, Ala. USA). A library of 175,000 compounds at 30 μM were assayed in a 384 well plates using a dipeptide chromogenic substrate, methionine-proline coupled to p-Nitroaniline (Met-Pro-pNA). Each compound was dissolved in DMSO and stored at −20° C. until use. The total reaction volume was 50 μL, and each reaction contained 40 mM HEPES buffer (pH 7.5), 100 mM NaCl, […], 0.1 U/mL ProAP, 1.5 mM CoCl2, […] (Met-Pro-pNA), and 252 nM MtMetAP1c. The enzyme was pre-incubated with compounds for 20 minutes at room temperature followed by addition of […]. The reaction was then incubated at room temperature for 30 min and monitored at 405 nm on a spectrophotometer.
as §1

MtMetAP1a = MtMetAP1a (Mycobacterium tuberculosis, UniProt P9WK21); experiment: as above; format: biochemical
C. elegans = experiment: Toxicity in non-infected C. elegans; details: 10 μg/mL

HsMetAP2, sequence (P50579 whole entry): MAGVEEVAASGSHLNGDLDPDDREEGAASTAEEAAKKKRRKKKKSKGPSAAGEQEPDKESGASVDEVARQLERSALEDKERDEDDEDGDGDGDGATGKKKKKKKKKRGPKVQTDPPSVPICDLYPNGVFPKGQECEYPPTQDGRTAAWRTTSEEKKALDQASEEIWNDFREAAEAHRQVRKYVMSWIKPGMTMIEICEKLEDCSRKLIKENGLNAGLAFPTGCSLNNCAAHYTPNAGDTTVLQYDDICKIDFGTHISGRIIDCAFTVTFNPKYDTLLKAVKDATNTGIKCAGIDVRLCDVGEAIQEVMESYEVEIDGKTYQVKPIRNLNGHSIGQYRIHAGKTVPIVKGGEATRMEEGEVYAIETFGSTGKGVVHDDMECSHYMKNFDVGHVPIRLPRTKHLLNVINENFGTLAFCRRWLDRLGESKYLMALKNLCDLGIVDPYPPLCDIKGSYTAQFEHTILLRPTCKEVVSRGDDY
MtMetAP1a, sequence (P9WK21 whole entry): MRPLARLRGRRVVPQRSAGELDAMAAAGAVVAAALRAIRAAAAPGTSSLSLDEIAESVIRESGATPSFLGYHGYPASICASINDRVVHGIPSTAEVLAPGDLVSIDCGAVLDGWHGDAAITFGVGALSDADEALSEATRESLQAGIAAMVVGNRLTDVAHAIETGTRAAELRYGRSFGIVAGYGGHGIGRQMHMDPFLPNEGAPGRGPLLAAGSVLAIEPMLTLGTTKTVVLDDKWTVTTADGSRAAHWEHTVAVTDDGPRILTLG
MtMetAP1c, sequence (P9WK19 whole entry): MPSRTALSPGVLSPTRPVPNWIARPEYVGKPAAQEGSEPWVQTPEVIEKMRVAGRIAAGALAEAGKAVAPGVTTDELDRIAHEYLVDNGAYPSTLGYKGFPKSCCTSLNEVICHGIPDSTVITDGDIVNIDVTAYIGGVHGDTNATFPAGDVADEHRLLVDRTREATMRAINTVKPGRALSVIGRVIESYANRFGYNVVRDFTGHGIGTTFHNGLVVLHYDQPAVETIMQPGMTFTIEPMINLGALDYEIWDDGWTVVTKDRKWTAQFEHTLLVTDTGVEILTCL

Q: For `CC(=O)Oc1c(Cl)cc(Cl)c2cccnc12`, which IC50 (EfMetAP1) is on record?
A: The IC50 was 14.6 µM.

Q: Which results are given for `O=C(N/N=C/c1c(O)ccc2ccccc12)c1ccncc1` [Compound 1, 2-hydroxy-1-naphthylaldehyde isonicotinoyl hydrazone]?
A: MIC (M. tuberculosis CDC 1551): < 10 µg/mL; IC50 (LmMetAP1; read-out: MetAP IC50 LmMetAP1): 10 to 100 µM; inhibition of HIV-1 p24 antigen production (HIV-1 (89.6 strain)): inhibited the production of HIV-1 p24 antigen in a dose response manner; inhibitory concentration equivalent to negative control (blank) (HIV-1 (89.6 strain)): 274.0 nM; IC50 (HIV-1 transcription): 2 µM; IC50 (HsMetAP1): 315 µM; IC50 (HsMetAP2): 146 µM; EC50 [1]: > 10 µM; EC50 [2]: 0.64 µM; concentration that perturbed the growth of aged non-growing Mtb bacilli (M. tuberculosis H37Ra; XTT): 1.82 µg/mL

Q: What does the source list for `Oc1ccccc1/C=N/Nc1ncnc2sc3c(c12)CCCC3` [Compound 2, 2-{(E)-[2-(5,6,7,8-tetrahydro[1]benzothieno[2,3-d]pyrimidin-4-yl)hydrazinylidene]methyl}phenol]?
A: MIC (M. tuberculosis CDC 1551): < 10 µg/mL; IC50 (LmMetAP1): > 2.5 µM; inhibition of HIV-1 p24 antigen production (HIV-1 (89.6 strain)): inhibited p24 antigen productions in a dose dependent manner; inhibitory concentration equivalent to negative control (blank) (HIV-1 (89.6 strain)): 234.0 nM; EC50 [1]: 9 µM; EC50 [2]: 0.375 µM

Q: For `Cc1nc(-c2ccccn2)nc(N(C)Cc2ccccc2)c1Cl` [Compound 3, N-benzyl-5-chloro-N,6-dimethyl-2-(pyridin-2-yl)pyrimidin-4-amine], which MIC (M. tuberculosis CDC 1551) is on record?
A: Its MIC is < 5 µg/mL.

Q: What about the IC50 (LmMetAP1) of the same compound?
A: Its IC50 is > 1 µM.

Q: And the “inhibition of HIV-1 p24 antigen production” value (HIV-1 (89.6 strain))?
A: The value was “inhibited p24 antigen productions in a dose dependent manner”.

Q: And the EC50 [1]?
A: The EC50 was 5 µM.

Q: And the EC50 [2]?
A: Its EC50 is 0.243 µM.

Q: Which results are given for `Clc1cc2c(c3ncccc13)OCN(C1CCCCC1)C2` [Compound 8, 6-chloro-3-cyclohexyl-3,4-dihydro-2H-[1,3]oxazino[5,6-h]quinolin]?
A: MIC (E. faecalis OG1RF [3]): 5 to 10 µg/mL (≈ 16.5 to 33 µM); IC50 (EfMetAP1): 5.24 µM; Minimum Inhibitory Concentration MIC30 V583 (E. faecalis V583 [4]): 0.50 to 1.50 µg/mL; MIC (E. faecalis V583 [4]; Enterococcus faecalis, V583, read-out: Minimum Inhibitory Concentration MIC30 V583): 0.5 to 1.5 µg/mL (≈ 1.65 to 4.95 µM); IC50 (HIV-1 (89.6 strain)): > 3.75 µM; MPC (Minimum Protective Concentration) V583 (E. faecalis V583 [5]): 4e-11 µg/mL; MPC (Minimum Protective Concentration) OG1RF (E. faecalis OG1RF [6]): 4e-11 µg/mL; MmaxPC (Maximum Protective Concentration) OG1RF (E. faecalis OG1RF [6]): 4e-08 µg/mL

Q: For `NNC(=O)c1ccncc1` [Isoniazid, reference compound], which IC50 (HIV-1 (89.6 strain)) is on record?
A: The IC50 was > 2 µM.

Q: And the “CFU from cellular lysates (intracellular M. bovis BCG)” value (M. bovis BCG)?
A: Its value is “dramatically reduced CFU”.

Q: What does the source list for `CO[C@H]1/C=C/O[C@@]2(C)Oc3c(C)c(O)c4c(O)c(c(/C=N/N5CCN(C)CC5)c(O)c4c3C2=O)NC(=O)/C(C)=C\C=C\[C@H](C)[C@H](O)[C@@H](C)[C@@H](O)[C@@H](C)[C@H](OC(C)=O)[C@@H]1C` [RIF, Rifampicin]?
A: CFU from cellular lysates (intracellular M. bovis BCG) (M. bovis BCG): dramatically reduced CFU; intracellular BCG by flow cytometry (M. bovis BCG; macrophages, 7 days): Reduction

Q: Which “Minimum Inhibitory Concentration Wild-type M. tuberculosis Strain CDC1551” value (M. tuberculosis CDC 1551) does the source give for `O=C(N/N=C/c1c(O)ccc2ccccc12)c1ccncc1` [drawing 22] here?
A: The value was <10.0 µg/mL.

Q: What about the IC50 (HsMetAP1) of the same compound?
A: The IC50 was 315 µM.

Q: What about the IC50 (HsMetAP2) of the same compound?
A: Its IC50 is 146 µM.

Q: And the IC50 (MtMetAP1c)?
A: Its IC50 is 5.3 µM.

Q: And the IC50 (MtMetAP1a)?
A: Its IC50 is 4.9 µM.

Q: With `Oc1ccccc1/C=N/Nc1ncnc2sc3c(c12)CCCC3` [drawing 23] as the compound, how does the “Minimum Inhibitory Concentration Wild-type M. tuberculosis Strain CDC1551” value (M. tuberculosis CDC 1551) read?
A: The value was <10.0 µg/mL.

Q: And the IC50 (MtMetAP1c)?
A: The IC50 was < 30 µM.

Q: What about the IC50 (MtMetAP1a) of the same compound?
A: Its IC50 is < 30 µM.

Q: Which “Minimum Inhibitory Concentration Wild-type M. tuberculosis Strain CDC1551” value (M. tuberculosis CDC 1551) does the source give for `Cc1nc(-c2ccccn2)nc(N(C)Cc2ccccc2)c1Cl` [drawing 24] here?
A: Its value is <5.0 µg/mL.

Q: For `O=C(N/N=C/c1c(O)ccc2ccccc12)c1ccncc1` [drawing 25], which MIC (M. tuberculosis H37Ra) is on record?
A: Its MIC is 6.25 µM (≈ 1.82 µg/mL).

Q: Which MIC (M. tuberculosis H37Ra) does the source give for `Oc1ccccc1/C=N/Nc1ncnc2sc3c(c12)CCCC3` [drawing 26] here?
A: Its MIC is 25 µM (≈ 8.11 µg/mL).

Q: With `Oc1c(Br)cc(Cl)c2cccnc12` [drawing 36] as the compound, how does the IC50 (EfMetAP1) read?
A: The IC50 was 12 µM.

Q: For `Oc1c(I)cc(Cl)c2cccnc12` [drawing 38], which IC50 (EfMetAP1) is on record?
A: The IC50 was 18.4 µM.

Q: With `CN(C)[C@@H]1C(O)=C(C(N)=O)C(=O)[C@@]2(O)C(O)=C3C(=O)c4c(O)cccc4[C@@](C)(O)[C@H]3C[C@@H]12` [tetracycline] as the compound, how does the “survival of non-infected animals” value (C. elegans) read?
A: The value was “did not decrease survival”.
